Legend:
Experiment in all cases: relative viability (nuclei count vs DMSO), 5 days (fraction); higher = more cells survive
[1] = compound: CN(C)C[C@@H]1CCn2cc(c3ccccc32)C2=C(C(=O)NC2=O)c2cn(c3ccccc23)CCO1 [Ruboxistaurin] + N=C(N)NC(=N)NCCc1ccccc1 [Phenformin] (partner 250 µM)
Procedure, shortened: (§1)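 Relative viability divides the nuclei count in treated wells by that in vehicle wells. Lung cancer cell lines were seeded in 1536-well plates, dosed by pin tool the next day, and fixed and stained after 5 days in one step with final 0.05% Triton X-100, 1% formaldehyde and 1 ug/ml Hoechst. Dosing was a single drug or a fixed anchor-drug dose plus five library-drug doses (not always all listed) in √10 steps, and values are medians of duplicate plates imaged at 4×.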

[2] = compound: CN(C)C[C@@H]1CCn2cc(c3ccccc32)C2=C(C(=O)NC2=O)c2cn(c3ccccc23)CCO1 [Ruboxistaurin] + C[C@@H](Oc1cc(-c2cnn(C3CCNCC3)c2)cnc1N)c1c(Cl)ccc(F)c1Cl [Crizotinib] (partner 1 µM)
Procedure, shortened: as §1

[3] = compound: CN(C)C[C@@H]1CCn2cc(c3ccccc32)C2=C(C(=O)NC2=O)c2cn(c3ccccc23)CCO1 [Ruboxistaurin] + C[C@]1(O)C[C@@H](c2nc(-c3ccc4ccc(-c5ccccc5)nc4c3)c3c(N)nccn32)C1 [Linsitinib] (partner 1 µM)
Procedure, shortened: as §1

Ruboxistaurin = compound: CN(C)C[C@@H]1CCn2cc(c3ccccc32)C2=C(C(=O)NC2=O)c2cn(c3ccccc23)CCO1 [Ruboxistaurin]
Procedure, shortened: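 On vehicle-anchored 1536-well plates, lung cancer cell lines held overnight at 37 °C were pinned with five library-drug doses (not always all listed) spaced by √10. With no medium change over 5 days, they were then fixed, permeabilised and Hoechst-stained in one step and imaged at 4×. MetaXpress counted nuclei, and viability is the median across plates of treated-well over vehicle-well nuclei. Acceptance needed control CV below 25% and at least one doubling.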

[4] = compound: CN(C)C[C@@H]1CCn2cc(c3ccccc32)C2=C(C(=O)NC2=O)c2cn(c3ccccc23)CCO1 [Ruboxistaurin] + COc1cc2c(Oc3ccc(NC(=O)C4(C(=O)Nc5ccc(F)cc5)CC4)cc3F)ccnc2cc1OCCCN1CCOCC1 [Foretinib] (partner 0.25 µM)
Procedure, shortened: as §1

Cell Line	relative viability ([1]; first compound 0.08 µM)	relative viability ([1]; first compound 0.8 µM)	relative viability ([1]; first compound 2.53 µM)	relative viability ([1]; first compound 8 µM)	relative viability ([2]; first compound 0.08 µM)	relative viability ([2]; first compound 0.8 µM)	relative viability ([2]; first compound 2.53 µM)	relative viability ([2]; first compound 8 µM)	relative viability ([3]; first compound 0.08 µM)	relative viability ([3]; first compound 0.8 µM)	relative viability ([3]; first compound 2.53 µM)	relative viability ([3]; first compound 8 µM)	relative viability (Ruboxistaurin; 0.08 µM)	relative viability (Ruboxistaurin; 0.8 µM)	relative viability (Ruboxistaurin; 2.53 µM)	relative viability (Ruboxistaurin; 8 µM)	relative viability ([4]; first compound 0.08 µM)	relative viability ([4]; first compound 0.8 µM)	relative viability ([4]; first compound 2.53 µM)	relative viability ([4]; first compound 8 µM)
HCC-44	0.204	0.193	0.185	0.19	0.756	0.674	0.867	0.853	0.643	0.645	0.674	0.635	1.01	0.979	1.01	1.07				
LCLC-103H	0.336	0.285	0.336	0.321	1.21	0.929	0.905	1.01	1.13	0.834	0.883	1.15	0.998	0.887	0.894	0.841	0.783	0.612	0.777	0.56
ChaGo-K-1	0.47	0.525	0.532	0.412	1.21	1.05	1.11	1.2					1.06	0.976	1.06	0.961	0.916	0.888	0.965	0.912
NCI-H1703					0.662	0.574	0.582	0.322	0.756	0.464	0.957	0.82	1.19	0.697	0.876	0.724	0.367		0.408	0.327
NCI-H1793	0.412	0.321	0.422	0.408					1.07	0.818	0.985	1.14	1.05	0.749	1.27	1.08	0.637	0.576	0.652	0.687
NCI-H1650	0.542	0.387	0.4	0.287	0.991	0.837	1.19	1.04					1.24	0.742	1.08	0.886	1.66	1.01	1.31	1.09
NCI-H1395	0.502	0.415	0.525	0.498					1.22	1.02	1.26	1.08	1.05	0.844	1.01	0.882	0.993	0.904	1.02	0.911
NCI-H1792	0.32		0.247	0.243	1.05	0.956	0.966	1.01	0.536	0.449	0.506	0.487	1.09	0.78	0.938	0.796				
IA-LM					1.01		0.967	0.938	0.734	0.277	0.6	0.685	0.959	0.79	0.981	1	1.14	1.11	1.31	1.38

From the supplement of paper PMC10307832
